The target in the experiment is T1, Human complement C1s enzyme (Homo sapiens, UniProt P09871).
T1 construct: purified from human serum, Complement Technology, Inc; purchased Complement Technology, Inc; host or cells: human serum (plasma-derived native protein)
T1 sequence (P09871 438-688 limits assumed): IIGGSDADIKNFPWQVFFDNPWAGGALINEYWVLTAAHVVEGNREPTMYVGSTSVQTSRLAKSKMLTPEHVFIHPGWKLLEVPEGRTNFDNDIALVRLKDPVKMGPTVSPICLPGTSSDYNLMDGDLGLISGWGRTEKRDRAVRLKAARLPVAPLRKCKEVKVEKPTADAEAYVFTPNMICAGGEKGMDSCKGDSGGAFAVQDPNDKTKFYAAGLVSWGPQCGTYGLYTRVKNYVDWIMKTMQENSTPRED
T1 sequence (P09871 16-437 partner limits assumed): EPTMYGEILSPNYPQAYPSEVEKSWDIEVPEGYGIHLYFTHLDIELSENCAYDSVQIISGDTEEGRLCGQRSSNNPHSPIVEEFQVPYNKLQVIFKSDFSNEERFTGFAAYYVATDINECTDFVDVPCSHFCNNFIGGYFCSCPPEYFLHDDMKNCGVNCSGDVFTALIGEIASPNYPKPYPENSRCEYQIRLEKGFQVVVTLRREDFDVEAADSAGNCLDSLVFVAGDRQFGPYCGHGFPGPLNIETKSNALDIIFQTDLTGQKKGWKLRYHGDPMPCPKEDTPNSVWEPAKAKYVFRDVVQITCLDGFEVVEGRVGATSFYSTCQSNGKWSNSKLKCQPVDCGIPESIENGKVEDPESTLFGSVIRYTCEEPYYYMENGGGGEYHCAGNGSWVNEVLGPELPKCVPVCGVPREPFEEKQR
The experiment can be described thus: Human C1s enzyme assay. In kind it is biochemical. The note with it: human complement C1s enzyme 1.16 nM, substrate Z-L-Lys-SBzl, A405; read-out: IC50 (Stars). An outline of the steps: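 Serum-purified human C1s (1.16 nM final) preincubated 5 min at room temperature with compound in 50 mM Tris, 1 M NaCl, pH 7.5. Z-L-Lys-SBzl and DTNB added at 100 μM each; A405 recorded every 30 s. IC50 from nonlinear regression of reaction rates versus compound concentration.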

pIC50: −log10 of the molar value.

Regarding `C[C@@H](Nc1cnc(-c2ccccn2)n(CC(=O)NCc2cc3cnccc3[nH]2)c1=O)c1ccc(-c2ccccc2F)cc1` [Compound 447, (R)-N-((1H-pyrrolo[3,2-c]pyridin-2-yl)methyl)-2-(5-((1-(2′-fluoro-[1,1′-biphenyl]-4-yl)ethyl)amino)-6-oxo-2-(pyridin-2-yl)pyrimidin-1(6H)-yl)acetamide], the pIC50 (as a rule, −log10 of the IC50, conventionally taken in molar units) was more than 7.00.

For the compound `O=C(Cn1c(-c2ccccc2)ncc(NC(=O)c2ccc(-c3ncc[nH]3)cc2)c1=O)NCc1cc2cnccc2[nH]1` [Compound 175, N-(1-(2-(((1H-pyrrolo[3,2-c]pyridin-2-yl)methyl)amino)-2-oxoethyl)-6-oxo-2-phenyl-1,6-dihydropyrimidin-5-yl)-4-(1H-imidazol-2-yl)benzamide], the pIC50 was more than 7.00.

Regarding `C[C@@H](Nc1cnc(-c2ccc(C3(F)COC3)cc2)n(CC(=O)NCc2cc3cnccc3[nH]2)c1=O)c1ccc2oc3ccccc3c2c1` [Compound 372, (R)—N-((1H-pyrrolo[3,2-c]pyridine-2-yl)methyl)-2-(5-((1-(dibenzo[b,d]furan-2-yl)ethyl)amino)-2-(4-(3-fluorooxetan-3-yl)phenyl)-6-oxopyrimidin-1(6H)-yl)acetamide], the pIC50 was more than 7.00.

Regarding `C[C@@H](Nc1cnc(-c2ccccc2)n(CC(=O)N[C@H](C)c2cc3cnccc3[nH]2)c1=O)c1ccc2oc3ccccc3c2c1` [Compound 294, N-((R)-1-(1H-pyrrolo[3,2-c]pyridin-2-yl)ethyl)-2-(5-(((R)-1-(dibenzo[b,d]furan-2-l)ethyl)-amino)-6-oxo-2-phenylpyrimi-din-1(6H)-yl)acetamide], the pIC50 is 6.00 to 7.00.

As for `CS(=O)(=NC#N)c1ccc(-c2ncc(NCCCc3ccccc3)c(=O)n2CC(=O)NCc2cc3cnccc3[nH]2)cc1` (stereo not shown) [Compound 114, N-((1H-pyrrolo[3,2-c]pyridine-2-yl)methyl)-2-(2-(4-(N-cyano-S-methylsulfonimidoyl)phenyl)-6-oxo-5-((3-phenylpropyl)amino)pyrimidin-1(6H)-yl)acetamide], the pIC50 is more than 7.00.

For the compound `O=C(Cn1c(-c2ccccc2)ncc(NC(=O)c2cccc(-c3ccccc3)c2)c1=O)NCc1cc2cnccc2[nH]1` [Compound 165, N-(1-(2-(((1H-pyrrolo[3,2-c]pyridin-2-yl)methyl)amino)-2-oxoethyl)-6-oxo-2-phenyl-1,6-dihydropyrimidin-5-yl)-[1,1′-biphenyl]-3-carboxamide], the pIC50 is more than 7.00.

As for `C[C@@H](Nc1cnc(N2CCCC(F)(F)C2)n(CC(=O)NCc2cc3cnccc3[nH]2)c1=O)c1ccc2oc3ccccc3c2c1` [Compound 399, (R)-N-((1H-pyrrolo[3,2-c]pyridin-2-yl)methyl)-2-(5-((1-(dibenzo[b,d]furan-2-yl)ethyl)-amino)-2-(3,3-difluoropiperi-din-1-yl)-6-oxopyrimidin-1(6H)-yl)acetamide], the pIC50 is more than 7.00.

As to `C[C@@H](Nc1cnc(-c2cccnc2)n(CC(=O)NCc2cc3cnccc3[nH]2)c1=O)c1ccc2oc3ccccc3c2c1` [Compound 335, (R)-N-((1H-pyrrolo[3,2-c]pyridin-2-yl)methyl)-2-(5-((1-(dibenzo[b,d]furan-2-yl)ethyl)-amino)-6-oxo-2-(pyridin-3-yl)-pyrimidin-1(6H)-yl)acetamide], the pIC50 was more than 7.00.

Turning to `C[C@@H](Nc1cnc(-c2ccccc2F)n(CC(=O)NCc2cc3cnccc3[nH]2)c1=O)c1coc(-c2ccccc2)n1` [Compound 321, (R)—N-((1H-pyrrolo[3,2-c]pyridine-2-yl)methyl)-2-(2-(2-fluorophenyl)-6-oxo-5-((1-(2-phenyloxazol-4-yl)ethyl)amino)pyrimidin-1(6H)-yl)acetamide], the negative-log IC50 (pIC50) is more than 7.00.

As to `C[C@@H](Nc1cnc(N2CCCCC2)n(CC(=O)NCc2cc3cnccc3[nH]2)c1=O)c1ccc2oc3ccccc3c2c1` [Compound 361, (R)-N-((1H-pyrrolo[3,2-c]pyridin-2-yl)methyl)-2-(5-((1-(dibenzo[b,d]furan-2-yl)ethyl)-amino)-6-oxo-2-(piperidin-1-yl)pyrimidin-1(6H)-yl)acet-amide], the pIC50 was more than 7.00.

(Values after patent US20260184707A1, “PHARMACEUTICAL COMPOUNDS FOR THE TREATMENT OF COMPLEMENT MEDIATED DISORDERS” (ALEXION PHARMACEUTICALS, INC., priority 2022, published 2026).)
